Key:
[1] = tested on: adjuvant induced arthritis; test: Adjuvant induced arthritis (AIA) in rats, clinical and histological score; type: in vivo
Procedure: AIA in Rats: Female Lewis rats, aged 8-12 weeks, obtained from Harlan Laboratories (Jerusalem, Israel), were injected subcutaneously (s.c.) at the tail base with 100 μl of suspension composed of incomplete Freund's adjuvant (IFA) with 10 mg/ml heat killed Mycobacterium tuberculosis, (Mt) H37Ra, (Difco, Detroit, USA). To assess the clinical disease activity score, the animals were inspected every second day for clinical arthritis. The scoring system ranged from 0-4 of each limb: 0-no arthritis; 1-redness or swelling of one toe/finger joint; 2-redness and swelling of more than one toe/finger joints; 3-the ankle and tarsal-metatarsal joints involvement; 4-entire paw redness or swelling. The arthritic score was calculated by adding the four individual legs' score to a maximum of 16. For histological scoring, Animals were sacrificed, the legs were removed up to the knee level, fixed in 10% formaldehyde, decalcified, dehydrated, paraffin-embedded, cut into 4 μm sections and stained by Hematoxylin-Eosin. The assessment of all pathologic findings were performed blind using semi-quantitative grading scales of 0 to 4 for the following parameters: a) extent of inflammatory cells' infiltration to the joint tissues; b) synovial lining cell hyperplasia; c) pannus formation; and d) joint cartilage layers destruction. […] TNF-α was measured in synovia, DLN and spleen tissues derived from control and CF101 treated rats. […] Protein concentrations were determined using the Bio-Rad protein assay dye reagent. […] Bands were recorded using BCIP/NBT color development kit (Promega, Madison, Wis., USA). Densitometry of protein expression was normalized against β-actin and expressed as % of control. […]

PKA and GSK-3β = test: Receptor functionality: Western blot of PKA and GSK-3β in B16-F10 melanoma cells; type: cell-based
Procedure: To detect the level of expression of the A3AR proteins Western blot analysis was performed. Cells were incubated in the presence and absence of IB-MECA (10 nM), MRS1523 (10 nM), Forskolin (50 nM), 8 Br cAMP (100 μM), Cycloheximide 20 μg/ml or MG 132 (20 nM) for different time periods at 37° C. Cells were then rinsed with ice-cold PBS and transferred to ice-cold lysis buffer (TNN buffer, 50 mM Tris buffer pH=7.5, 150 mM NaCl, NP 40). In the experiment examining the effect of trypsin on A3AR expression, cells were incubated with 0.5 ml of 0.25% trypsin for 5 minutes. The trypsinized cells were washed again with ice-cold PBS, harvested by centrifugation and subjected to lysis in TNN buffer. Cell debris was removed by centrifugation for 10 minutes, at 7500 xg. The supernatant was utilized for Western Blot analysis. Protein concentrations were determined using the Bio-Rad protein assay dye reagent. Equal amounts of the sample (50 μg) were separated by SDS-PAGE, using 12% polyacrylamide gels. The resolved proteins were then electroblotted onto nitrocellulose membranes (Schleicher & Schuell, Keene, NH, USA). Membranes were blocked with 1% bovine serum albumin and incubated with the desired primary antibody (dilution 1:1000) for 24 hours at 4° C. Blots were then washed and incubated with a secondary antibody for 1 hour at room temperature. Bands were recorded using BCIP/NBT color development kit (Promega, Madison, W1, USA). Data presented in the different figures are representative of at least three different experiments.
To test receptor functionality, the protein expression level of PKA and GSK-3β, which are modulated downstream to A3AR activation, was examined. Functional receptor sensitization by IB-MECA was observed after 15 and 60 minutes and was manifested by decreased PKA and increased GSK-3β levels. […] Indeed, the modulatory effect of IB-MECA on PKA and GSK-3β was reversed in the presence of the above agents (FIG. 8a, 8b and 8c).

B16-F10 melanoma = B16-F10 melanoma tumor growth in mice; type: in vivo; conditions: 100 μg/kg orally once daily, 15 days, p<0.0001
Procedure: Melanoma: C57BL/6J, male mice (Harlan Laboratories, Jerusalem, Israel) aged 2 months, weighing an average of 25 g were used. B16-F10 (2.5×105) melanoma cells were subcutaneously (s.c.) injected to the flank of the mice. IB-MECA at a dose of 100 μg/kg body weight was administered orally once daily, starting 24 hours after tumor cells' inoculation. The control group was treated daily, orally, with the vehicle only. Mice were sacrificed after 15 days, tumor lesions were excise and protein was extracted for measurements as described above. The tumor size (width (W) and length (L)) was measured with a caliber and calculated according to the following formula: Tumor Size =(W)2xL/2. Each group contained 15 mice and the study was repeated 3 times.
Consequently, an increase in the total GSK-3β level was noted, thereby leading to a decrease in the level of β-catenin.

A3AR = test: Northern blot analysis of A3AR mRNA in B16-F10 melanoma cells; type: cell-based; conditions: B16-F10 melanoma cells treated with IB-MECA
Procedure: Total RNA was isolated from B16-F10 melanoma cells treated with IB-MECA, utilizing Tri-reagent (Sigma, Saint Louis). The samples were then subjected twice to phenol:chloroform extraction and washed with chloroform. RNA was precipitated with sodium acetate/ethanol following washing with ethanol, then denatured, separated (25 μg per lane) in 1.1% formaldehyde agarose gels and transferred to Hybond-N membrane. The 390 bp EcoRI fragment from A3AR cDNA clone of mouse (TAA3I.S), kindly supplied by Dr Kathia Ravid, was prepared by random-primed synthesis. Probes were used in RNA blot analysis at a hybridization temperature of 42° C. in the presence of 50% formamide.

Q: `CNC(=O)[C@H]1O[C@@H](n2cnc3c(NCc4cccc(I)c4)ncnc32)[C@H](O)[C@@H]1O` [IB-MECA, 1-deoxy-1-[6[[(3-iodophenyl)methyl]amino]-9H-purine-9-yl]-N-methyl-β-D-ribofura-nuronaminde] was tested. Which “clinical score (inflammatory response)” value ([1]; 10 μg/kg orally twice daily, versus vehicle) did it give?
A: anti-inflammatory response

Q: What about the histological score ([1]; day 28, versus control) of the same compound?
A: anti-inflammatory activity

Q: What about the GSK-3β level (PKA and GSK-3β; after 15 and 60 minutes) of the same compound?
A: increased

Q: And the PKA level (PKA and GSK-3β; after 15 and 60 minutes)?
A: decreased

Q: What about the GSK-3β level (PKA and GSK-3β; at 30 minutes) of the same compound?
A: only slightly increased

Q: What about the PKA level (PKA and GSK-3β; at 30 minutes) of the same compound?
A: stabilized

Q: What about the “inhibition of B16-F10 melanoma tumor growth” value (B16-F10 melanoma) of the same compound?
A: 76%

Q: And the “A3AR mRNA expression level” value (A3AR)?
A: increase
